In US9999222B2, “Herbicidal combination comprising azines” (BASF SE, priority 2014, dated 2018):
Read-outs that look alike come from different tables or passages of the source.

Key:
Assay in all cases: Greenhouse test, pre-emergence treatment
[1] = test system: ABUTH; assay type: in vivo, Abutilon theophrasti; conditions: Abutilon theophrasti, 480 h, 25 g ai/ha, 20 DAT, read-out: observed % activity
In short: (§1)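 Seeds were sown in loamy sand with approximately 3.0% humus, then sprayed at once with actives suspended or emulsified in water. Pots were watered, hooded until rooting, held at 10-25° C. or 20-35° C. by species for 2 to 4 weeks, and scored 0 (no damage) to 100 (no emergence/complete destruction).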

[2] = test system: POLCO; assay type: in vivo, Polygonum convolvulus; conditions: Fallopia convolvulus, pre-emergence, 480 h
In short: as §1

[3] = test system: ANTAR; assay type: in vivo; conditions: Anthemis arvensis, 480 h, 20 DAT, read-out: observed % activity
From the text: The culture containers used were plastic flowerpots containing loamy sand with approximately 3.0% of humus as the substrate. The seeds of the test plants were sown separately for each species.
For the pre-emergence treatment, the active ingredients, which had been suspended or emulsified in water, were applied directly after sowing by means of finely distributing nozzles. The containers were irrigated gently to promote germination and growth and subsequently covered with transparent plastic hoods until the plants had rooted. This cover caused uniform germination of the test plants, unless this had been impaired by the active ingredients.
Depending on the species, the plants were kept at 10-25° C. or 20-35° C., respectively.
The test period extended over 2 to 4 weeks. During this time, the plants were tended, and their response to the individual treatments was evaluated.
Evaluation was carried out using a scale from 0 to 100. 100 means no emergence of the plants, or complete destruction of at least the aerial moieties, and 0 means no damage, or normal course of growth. A moderate herbicidal activity is given at values of at least 60, a good herbicidal activity is given at values of at least 70, and a very good herbicidal activity is given at values of at least 85.
The respective stated components a and b, and if appropriate, c were formulated as a 10% by weight strength emulsion concentrate and, with addition of the amount of solvent system, introduced into the spray liquor used for applying the active compound.
In the examples, the solvent used was water.
In the examples below, using the method of S. R. Colby (1967) “Calculating synergistic and antagonistic responses of herbicide combinations”, Weeds 15, p. 22ff., the value E, which is expected if the activity of the individual active compounds is only additive, was calculated. E=X+Y−(X·Y/100) where • X=percent activity using active compound a at an application rate A; • Y=percent activity using active compound b at an application rate B; • E=expected activity (in %) by a+b at application rates A+B.
If the value found experimentally is higher than the value E calculated according to Colby, a synergistic effect is present.

[4] = test system: COMBE; assay type: in vivo, Commelina benghalensis; conditions: Commelina benghalensis, pre-emergence, 480 h
In short: as §1

[5] = test system: EPHHL; assay type: in vivo, Euphorbia heterophylla; conditions: Euphorbia heterophylla, pre-emergence, 480 h
In short: as §1

[6] = test system: GALAP; assay type: in vivo, Galium aparine; conditions: Galium aparine, pre-emergence, 480 h
In short: as §1

[7] = test system: GERPU; assay type: in vivo, Geranium pusillum; conditions: Geranium pusillum, pre-emergence, 480 h
In short: as §1

[8] = test system: KCHSC; assay type: in vivo, Kochia scoparia; conditions: Bassia scoparia, pre-emergence, 480 h, 20 DAT, read-out: observed % activity
In short: as §1

[9] = test system: IPOHE; assay type: in vivo, Ipomoea hederacea; conditions: Ipomoea hederacea, 480 h, 50 g ai/ha, 20 DAT, read-out: observed % activity
In short: as §1

[10] = test system: SIDRH; assay type: in vivo, Sida rhombifolia; conditions: 20 DAT
In short: as §1

[11] = test system: CENCY; assay type: in vivo; conditions: 480 h, individual, read-out: observed % activity 20 DAT
[12] = 25 g ai/ha, 20 DAT, read-out: observed % activity
[13] = 50 g ai/ha, 20 DAT, read-out: observed % activity

## CS(=O)(=O)c1ccc(C(=O)C2C(=O)CCCC2=O)c([N+](=O)[O-])c1 [Mesotrione, mesotrione]
[1]
  inhibition at 25 g/ha: 95%
[2]; [12]
  inhibition at 25 g/ha: 20%
[2]; [13]
  inhibition at 50 g/ha: 30%
[2]; POLCO, individual, use rate 25 g ai/ha, read-out: observed % activity 20 DAT
  inhibition at 25 g/ha: 0%
[2]; POLCO, individual, use rate 50 g ai/ha, read-out: observed % activity 20 DAT
  inhibition at 50 g/ha: 0%
[3]; 25 g ai/ha
  inhibition at 25 g/ha: 85%
[3]; 50 g ai/ha
  inhibition at 50 g/ha: 95%
[4]; [12]
  inhibition at 25 g/ha: 65%
[4]; [13]
  inhibition at 50 g/ha: 98%
[4]; COMBE, individual, use rate 25 g ai/ha, read-out: observed % activity 20 DAT
  inhibition at 25 g/ha: 0%
[4]; COMBE, individual, use rate 50 g ai/ha, read-out: observed % activity 20 DAT
  inhibition at 50 g/ha: 0%
[5]; [12]
  inhibition at 25 g/ha: 60%
[5]; [13]
  inhibition at 50 g/ha: 70%
[5]; EPHHL, individual, use rate 25 g ai/ha, read-out: observed % activity 20 DAT
  inhibition at 25 g/ha: 50%
[5]; EPHHL, individual, use rate 50 g ai/ha, read-out: observed % activity 20 DAT
  inhibition at 50 g/ha: 60%
[6]; [13]
  inhibition at 50 g/ha: 75%
[6]; GALAP, individual, use rate 25 g ai/ha, read-out: observed % activity 20 DAT
  inhibition at 25 g/ha: 65%
[6]; GALAP, individual, use rate 50 g ai/ha, read-out: observed % activity 20 DAT
  inhibition at 50 g/ha: 80%
[7]; [12]
  inhibition at 25 g/ha: 0%
[7]; [13]
  inhibition at 50 g/ha: 0%
[7]; GERPU, individual, use rate 25 g ai/ha, read-out: observed % activity 20 DAT
  inhibition at 25 g/ha: 70%
[8]; 25 g ai/ha
  inhibition at 25 g/ha: 70%
[8]; 50 g ai/ha
  inhibition at 50 g/ha: 90%
[9]
  inhibition at 50 g/ha: 30%
[10]; 25 g ai/ha
  observed % activity: 55%
[10]; Sida rhombifolia, pre-emergence, 480 h, 25 g ai/ha, read-out: observed % activity
  inhibition at 25 g/ha: 60%
[10]; Sida rhombifolia, pre-emergence, 480 h, 50 g ai/ha, read-out: observed % activity
  inhibition at 50 g/ha: 85%
[11]; use rate 25 g ai/ha
  inhibition at 25 g/ha: 60%
[11]; use rate 50 g ai/ha
  inhibition at 50 g/ha: 40%
